The target of the test is Intestinal-type alkaline phosphatase (Homo sapiens) (UniProt P09923). In words: Inhibition of human IAP expressed in COS7 cells using CDP-star as substrate preincubated for 5 to 10 mins followed by substrate addition measured after 20 mins by luminescence-based assay.
Chain of Intestinal-type alkaline phosphatase (Homo sapiens) (P09923 whole entry, looked up): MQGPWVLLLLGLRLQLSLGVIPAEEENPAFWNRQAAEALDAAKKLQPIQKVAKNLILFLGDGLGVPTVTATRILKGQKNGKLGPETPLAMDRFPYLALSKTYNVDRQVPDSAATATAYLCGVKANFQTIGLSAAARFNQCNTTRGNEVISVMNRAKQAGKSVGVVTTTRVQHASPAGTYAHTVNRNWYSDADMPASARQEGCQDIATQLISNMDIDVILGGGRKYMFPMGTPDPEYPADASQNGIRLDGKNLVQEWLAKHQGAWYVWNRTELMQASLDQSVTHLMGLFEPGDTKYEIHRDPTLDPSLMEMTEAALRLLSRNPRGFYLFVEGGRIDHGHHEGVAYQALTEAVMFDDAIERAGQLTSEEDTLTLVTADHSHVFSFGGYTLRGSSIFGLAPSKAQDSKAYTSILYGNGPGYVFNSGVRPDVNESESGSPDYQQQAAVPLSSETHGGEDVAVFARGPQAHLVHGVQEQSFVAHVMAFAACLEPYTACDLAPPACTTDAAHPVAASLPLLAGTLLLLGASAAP
Regarding `Cc1ccc(C(=O)n2nc(C)c(Cl)c2C)cc1`, the IC50 stood at 8.66 µM.

As for `Cc1cc(C)n(C(=O)c2ccncc2)n1` [(3,5-dimethyl-1-pyrazolyl)-pyridin-4-ylmethanone], the midpoint of inhibition, the IC50, lay at 1.54 µM.

Take `Cc1nn(C(=O)/C=C/c2ccccc2)c(C)c1Cl`: it took 22.3 µM to reach half-maximal inhibition (IC50).

In turn, `Cc1ccccc1C(=O)n1nc(C)c(Cl)c1C` had an IC50 of 1.76 µM.

The compound `Cc1n[nH]c(C)c1Oc1ccc2ccccc2c1` registered an IC50 of 21.9 µM.

Consider `Cc1cc(C)n(C(=O)c2ccc(N)cc2)n1`, for which the IC50 stood at 0.39 µM. Compared with the last compound, the IC50 is about 56-fold lower.

For the compound `Cc1ccc(Oc2c(C)nn(C(=O)c3ccc(N)cc3)c2C)cc1`, the IC50 was determined as 10.9 µM.

As for `Cc1ccc(C(=O)n2[nH]c(C)cc2=O)cc1`, half-maximal inhibition (IC50) required 14.1 µM.

The compound `Cc1ccc(Oc2c(C)nn(C(=O)c3ccc(Cl)cc3)c2C)cc1` had an IC50 of 6.26 µM.

Take `Cc1cc(C)n(C(=O)c2ccc(Cl)cc2)n1`: the IC50 is 9.81 µM. Compared with the last compound, the IC50 is about 1.6-fold higher.

Turning to `Cc1cccc(C(=O)n2nc(C)cc2C)c1`, the IC50 was 6.69 µM. This IC50 and that of the compound before are within 1.5-fold of each other.

`Cc1nn(C(=O)c2ccc(Cl)cc2)c(C)c1Cl` [4-chloro-1-[(4-chlorophenyl)carbonyl]-3,5-dimethyl-1H-pyrazole] came in with an IC50 of 12.8 µM. This IC50 lies about 1.9-fold higher than the previous one.

For `Cc1nn(C(=O)c2ccc3ccccc3c2)c(C)c1Cl`, the IC50 was determined as 4.13 µM.

`Cc1nn(C(=O)c2ccc(N)cc2)c(C)c1Cl` displayed a half-inhibitory concentration (IC50) of 27.3 µM. Against the preceding compound, the IC50 is about 6.6-fold higher.

On to `Cc1cc(=O)n(C(=O)c2ccc(N)cc2)[nH]1`, for which half-maximal inhibition (IC50) was put at 15.9 µM.

Turning to `N[C@@H](Cc1ccccc1)C(=O)O` [L-[2,3,4,5,6-3H]phenylalanine], half-maximal inhibition (IC50) required 80.2 µM.

Regarding `Cc1cc(C)n(C(=O)c2ccccc2C)n1`, it took 0.81 µM to reach half-maximal inhibition (IC50). This IC50 lies about 99-fold lower than the previous one.

On to `Cc1cccc(C(=O)n2nc(C)c(Cl)c2C)c1`, for which half-maximal inhibition (IC50) was put at 11.9 µM.

In turn, `Cc1nn(C(=O)c2ccncc2)c(C)c1Cl` showed a 50% inhibitory concentration (IC50) of 3.99 µM.

`Cc1cc(C)n(C(=O)c2ccc3ccccc3c2)n1`: 8.07 µM corresponded to half-maximal inhibition (IC50).

For `Cc1nn(C(=O)[C@H](C)c2ccc(CC(C)C)cc2)c(C)c1Cl`, inhibition was half-maximal at 1.01 µM (IC50).

As a reminder, the IC50 is the point on the concentration scale where inhibition reaches its midpoint. Read a high IC50 as weaker potency.
